Assay results from paper PMC6327263, “Evaluation of Novel 3-Hydroxyflavone Analogues as HDAC Inhibitors against Colorectal Cancer” (Advances in Pharmacological Sciences, 2018).

What was measured:
[1] = test system: HCT116 cells; assay: Annexin V staining; type: cell-based, human; details: SAHA 5 µM, quercetin 100 µM, QMJ-2 100 µM, QMJ-5 50 µM, normal control 21.30%
Method: Mechanism of cell death induced by synthesized analogues was determined using annexin V staining. In brief, as per annexin V flow cytometry kit protocol (#MCH100105), 1 × 10^6 cells were seeded in a cell culture dish and after overnight adherence, were incubated with test compounds. Cells were then detached by trypsinization, centrifuged, and washed with PBS. Cell suspension (100 µl) was mixed with Muse annexin V reagent (100 µl) and incubated for 20 min at room temperature. The stained cells were quantitatively analyzed for live, early, and late apoptosis using Muse cell analyzer (#0500-3115 Merck Millipore).

[2] = test system: caspase 3/7 in HCT116 cells; assay: Caspase 3/7 activation assay; type: cell-based, human; details: SAHA 5 µM, quercetin 100 µM, QMJ-2 100 µM, QMJ-5 50 µM; for percentage of apoptotic cells (Apoptotic/Dead, caspase 3/7): normal control 24.60%; for percentage of live cells (caspase 3/7): normal control 69.40%
Method: The downstream signaling pathway of apoptosis was determined using the caspase 3/7 activation assay. In brief, as per the caspase 3/7 activation kit protocol (#MCH100108), 1 × 10^6 cells were seeded in the cell culture dish and after overnight adherence, were incubated with the test compounds. The cells were detached by trypsinization, centrifuged, and washed with PBS. Cell suspension (50 µl) was mixed with the caspase 3/7 antibody reagent (5 µl) and incubated at 37°C temperature for 30 min. 7-AAD (7-amino-actinomycin D) working solution (150 µl) was added, and stained cells were then analyzed in Muse Cell Analyzer (#0500-3115 Merck Millipore).

[3] = test system: VERO cells; assay: MTT cytotoxicity assay, Vero; type: cell-based, African green monkey; details: Chlorocebus sabaeus, 48 h, mean ± SEM of three experiments
Method: (§1) Human colorectal carcinoma cell line (HCT116) and African green monkey kidney epithelial cells (VERO) were obtained from National Centre for Cell Science, Pune, MH, India. For their maintenance, the cells were grown in Dulbecco's Modified Eagle's Medium (DMEM) which was supplemented with 10% fetal bovine serum (FBS) and 1 × penicillin/streptomycin at 37°C in CO2 incubator (NU-5501E/G, NuAire Inc., Plymouth, MN, USA) in a humidified atmosphere of 5% CO2 and 95% air.
(§2) Cytotoxicity for the synthesized analogues was determined using MTT assay. In brief, HCT116 and VERO cells were harvested from the tissue culture flask and seeded in sterile 96 well plates at a density of 5000 cells per well. After overnight adherence, different concentrations of test compounds were added and incubated for 48 h. Next, 50 µl of the MTT reagent (HiMedia Laboratories, Mumbai, India) (2 mg/ml in the sterile phosphate buffer saline (PBS)) was added into each well and incubated for 3 h. The formazan crystals formed were solubilized using 100% dimethyl sulfoxide (DMSO), and the optical density was measured at 540 nm using the microplate reader (ELx800, BioTek Instruments Inc., Winooski, VT, USA).

[4] = test system: HDAC enzyme in HCT116 cells; assay: Whole cell HDAC inhibition assay; type: cell-based; details: Homo sapiens, HCT-116, HCT116, 18 h treatment, mean ± SEM of three experiments
Method: Confluent HCT116 cells were harvested and seeded in 96 well sterile black well plates at a density of 2000 cells per well and incubated overnight. Furthermore, the cells were treated with different concentrations of test compounds for a period of 18 h followed by the addition of […] BOC-Ac-Lys-AMC substrate and incubated for 1 h. […] The reaction was then allowed to proceed for 15 min at 37°C. Finally, the fluorescence intensity was measured at 360 nm excitation and 460 nm emission using a fluorescence microplate reader (FLx800, BioTek Instruments Inc., Winooski, VT, USA).

[5] = target: T1, recombinant human HDAC8 enzyme (Homo sapiens, UniProt Q9BY41); assay: HDAC8 enzyme inhibition assay; type: biochemical; details: mean ± SEM of three experiments
T1 construct: purchased Enzo Life Science, NY, USA BML-AK518
T1 sequence (Q9BY41 1-377): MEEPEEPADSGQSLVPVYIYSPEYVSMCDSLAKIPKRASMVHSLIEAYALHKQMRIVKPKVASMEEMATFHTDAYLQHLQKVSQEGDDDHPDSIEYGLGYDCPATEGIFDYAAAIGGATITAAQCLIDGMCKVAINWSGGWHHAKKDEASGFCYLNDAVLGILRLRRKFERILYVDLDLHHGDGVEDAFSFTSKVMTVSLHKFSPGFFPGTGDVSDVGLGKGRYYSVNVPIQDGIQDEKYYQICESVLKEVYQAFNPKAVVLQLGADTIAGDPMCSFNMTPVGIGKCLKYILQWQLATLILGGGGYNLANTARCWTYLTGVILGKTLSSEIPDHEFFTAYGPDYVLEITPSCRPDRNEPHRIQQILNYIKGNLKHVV
Method: The enzymatic reaction was conducted as per Enzo Life Science, NY, USA (BML-AK518) kit protocol. In brief, 10 µl of different concentration of test compounds were added to a 40 µl reaction mixture containing the HDAC assay buffer, HDAC8 substrate, and recombinant human HDAC8 enzyme. The reactions were incubated for 20 min at 30°C. Then, 50 µl of the HDAC developer was added in each well, and the plate was incubated at room temperature for an additional 45 min. Fluorescence intensity was measured at an excitation of 360 nm and an emission of 460 nm using a fluorescence microplate reader (FLx800, BioTek Instruments Inc., Winooski, VT, USA).

[6] = test system: HCT116 cells; assay: MTT cytotoxicity assay, HCT116; type: cell-based, human; details: for cytotoxicity in HCT116 relative to inhibitory concentration in normal (Vero) cell line: HCT116 vs Vero; for IC50: Homo sapiens, HCT-116, 48 h, mean ± SEM of three experiments
Method: as §1, §2

Row | IC50 [4] | IC50 [5] | SMILES | percentage of cells undergoing late apoptosis (Late Apop./Dead, annexin V) [1] | percentage of apoptotic cells (Apoptotic/Dead, caspase 3/7) [2] | percentage of live cells (caspase 3/7) [2] | IC50 [3] | cytotoxicity in HCT116 relative to inhibitory concentration in normal (Vero) cell line [6] | IC50 [6]
1 | 182 ± 22 µM | 36 ± 4.17 µM | Cc1ccc(-c2oc3ccccc3c(=O)c2O)cc1 [QMJ-2, 3-Hydroxy-2-(4-methylphenyl)-4H-1-benzopyran-4-one] | 35.20% | 55.70% | 37.40% | 140 ± 6.8 µM | two-fold lower concentration | 68 ± 2.3 µM
2 | 70.2 ± 4.3 µM | 24 ± 2.8 µM | Cc1ccc(-c2oc3cc(C)ccc3c(=O)c2O)cc1 [QMJ-5, 3-Hydroxy-7-methyl-2-(4-methylphenyl)-4H-1-benzopyran-4-one] | 38.65% | 83.55% | 8.05% | 55.6 ± 3.8 µM | two-fold lower concentration | 27.4 ± 1.8 µM

Row | SMILES | IC50 [4] | IC50 [5] | percentage of cells undergoing late apoptosis (Late Apop./Dead, annexin V) [1] | percentage of apoptotic cells (Apoptotic/Dead, caspase 3/7) [2] | percentage of live cells (caspase 3/7) [2] | IC50 [3] | cytotoxicity in HCT116 relative to inhibitory concentration in normal (Vero) cell line [6] | IC50 [6]
3 | O=c1c(O)c(-c2ccc(O)c(O)c2)oc2cc(O)cc(O)c12 [Quercetin, quercetin, reference compound] | 168 ± 6.9 µM | 15.4 ± 1.53 µM | 35.80% | 59.65% | – | 202 ± 7.5 µM | – | 108 ± 1.2 µM
